In patent US4826973A, “Delta form of aztreonam and preparation thereof” (priority 1985, dated 1989):

Key:
[1] = Intrinsic dissolution rate of crystalline forms; format: physicochemical; details: TABLE II, crystalline forms of aztreonam
[2] = Physical and processing (bulk) properties of crystalline forms; format: physicochemical; details: TABLE II, crystalline forms of aztreonam
[3] = as described for Ser. No. 282,636; cited from earlier work
[4] = compared with α-form or simple salts of the compound; storage prior to conversion to β-form

For `C[C@H]1[C@H](NC(=O)/C(=N\OC(C)(C)C(=O)O)c2csc(N)n2)C(=O)N1S(=O)(=O)O` [α-Form, [3S-[3α(Z)4β]]-3-[[(2-amino-4-thiazolyl)[(1-carboxy-1-methylethoxy)imino]acetyl]amino]-4-methyl-2-oxo-1-azetidinesulfonic acid], the “Intrinsic Dissolution Rate” value [1] was “slow”, the Density [2] was “low” and the Flowability [2] was “poor”. For the same compound, the “Surface Area” value [2] was “high”.
For `C[C@H]1[C@H](NC(=O)/C(=N\OC(C)(C)C(=O)O)c2csc(N)n2)C(=O)N1S(=O)(=O)O` [β-Form, [3S-[3α(Z),4β]]-3-[[(2-amino-4-thiazolyl)-[(1-carboxy-1-methylethoxy)imino]acetyl]amino]-4-methyl-2-oxo-1-azetidinesulfonic acid], the “Intrinsic Dissolution Rate” value [1] was “fast”, the Density [2] was “high” and the Flowability [2] was “good”. For the same compound, the “Surface Area” value [2] was “low” and the “Hygroscopicity (background, earlier application)” value [3] was “substantially non-hygroscopic”.
In the case of `C[C@H]1[C@H](NC(=O)/C(=N\OC(C)(C)C(=O)O)c2csc(N)n2)C(=O)N1S(=O)(=O)O` [γ-Form], the “Intrinsic Dissolution Rate” value [1] is reported as “fast”, the Density [2] is reported as “low” and the Flowability [2] is reported as “poor”. For the same compound, the “Surface Area” value [2] was “high”.
In the case of `C[C@H]1[C@H](NC(=O)/C(=N\OC(C)(C)C(=O)O)c2csc(N)n2)C(=O)N1S(=O)(=O)O` [δ-Form, [3S-[3α(Z),4β]]-3-[[(2-amino-4-thiazolyl)[(1-carboxy-1-methylethoxy)imino]acetyl]amino]-4-methyl-2-oxo-1-azetidinesulfonic acid], the “Intrinsic Dissolution Rate” value [1] is reported as “fast”, the Shelf life [4] is reported as “greater than that of the α-form, or for that matter simple salts of the compound” and the Density [2] is reported as “high”. The Flowability [2] was “good” and the “Surface Area” value [2] was “low”.
